In patent US20230085307A1, “PYRIDAZINONE COMPOUND AND HERBICIDE” (NISSAN CHEMICAL CORPORATION, priority 2019, published 2023):

test system: blackgrass; assay: Test Example 5: herbicidal effect by foliage application, plastic box (Table 20, symbol J); type: in vivo, blackgrass (Alopecurus myosuroides); details: foliage application, AAH 320 g/ha, three weeks after application
Method in brief: (§1)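 Sow seeds spot-wise in sterilized diluvial soil; cover with ~1.5 cm soil. Grow 14 days in greenhouse, 25° C. to 30° C. Spray foliage with emulsion diluted to predetermined amount. Rate effect after 3 weeks.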

SMILES | J: blackgrass, herbicidal effect
COc1nn(C)c(=O)c(-c2c(-c3ccc([N+](=O)[O-])cc3)sc3ccccc23)c1O [1-168] | 0 (Herbicidal rate of 5% or less (almost no effect))

test system: blackgrass; assay: Test Example 4: herbicidal effect by soil treatment (Table 19, symbol J); type: in vivo, blackgrass (Alopecurus myosuroides); details: AAH 320 g/ha
Method in brief: (§2)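 Soil-surface application: an emulsion agent diluted with water to the predetermined dose is sprayed uniformly over seeds lying under roughly 1.5 cm of sterilized diluvial soil. Boxes stay in a greenhouse at 25° C. to 30° C. Three weeks later, each species is graded on previously defined criteria.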

SMILES | J: blackgrass, herbicidal effect rating
COc1nn(C)c(=O)c(-c2c(-c3ccc([N+](=O)[O-])cc3)sc3ccccc23)c1O [1-168] | 0 (Herbicidal rate of 5% or less (almost no effect))

test system: persian speedwell; assay: Test Example 5: herbicidal effect by foliage application, plastic box (Table 20, symbol R); type: in vivo, Persian speedwell (Veronica persica); details: foliage application, AAH 320 g/ha, three weeks after application
Method in brief: as §1

SMILES | R: persian speedwell, herbicidal effect
COc1nn(C)c(=O)c(-c2c(-c3ccc([N+](=O)[O-])cc3)sc3ccccc23)c1O [1-168] | 5 (Herbicidal rate of 90% or more (almost completely withered))

test system: southern crabgrass; assay: Test Example 5: herbicidal effect by foliage application, plastic box (Table 20, symbol F); type: in vivo, southern crabgrass (Digitaria ciliaris); details: foliage application, AAH 320 g/ha, three weeks after application
Method in brief: as §1

SMILES | F: southern crabgrass, herbicidal effect
COc1nn(C)c(=O)c(-c2c(-c3ccc([N+](=O)[O-])cc3)sc3ccccc23)c1O [1-168] | 3 (Herbicidal rate of 40% or more and less than 70%)

test system: redroot pigweed; assay: Test Example 4: herbicidal effect by soil treatment (Table 19, symbol N); type: in vivo, redroot pigweed (Amaranthus retroflexus); details: AAH 320 g/ha
Method in brief: as §2

SMILES | N: redroot pigweed, herbicidal effect rating
COc1nn(C)c(=O)c(-c2c(-c3ccc([N+](=O)[O-])cc3)sc3ccccc23)c1O [1-168] | 1 (Herbicidal rate of 5% or more and less than 20%)

test system: lambsquarters; assay: Test Example 5: herbicidal effect by foliage application, plastic box (Table 20, symbol O); type: in vivo, lambsquarters (Chenopodium album); details: foliage application, AAH 320 g/ha, three weeks after application
Method in brief: as §1

SMILES | O: lambsquarters, herbicidal effect
COc1nn(C)c(=O)c(-c2c(-c3ccc([N+](=O)[O-])cc3)sc3ccccc23)c1O [1-168] | 4 (Herbicidal rate of 70% or more and less than 90%)

test system: wild oat; assay: Test Example 5: herbicidal effect by foliage application, plastic box (Table 20, symbol I); type: in vivo, wild oat (Avena fatua); details: foliage application, AAH 320 g/ha, three weeks after application
Method in brief: as §1

SMILES | I: wild oat, herbicidal effect
COc1nn(C)c(=O)c(-c2c(-c3ccc([N+](=O)[O-])cc3)sc3ccccc23)c1O [1-168] | 0 (Herbicidal rate of 5% or less (almost no effect))

test system: green foxtail; assay: Test Example 4: herbicidal effect by soil treatment (Table 19, symbol G); type: in vivo, green foxtail (Setaria viridis); details: AAH 320 g/ha
Method in brief: as §2

SMILES | G: green foxtail, herbicidal effect rating
COc1nn(C)c(=O)c(-c2c(-c3ccc([N+](=O)[O-])cc3)sc3ccccc23)c1O [1-168] | 0 (Herbicidal rate of 5% or less (almost no effect))

test system: wild oat; assay: Test Example 4: herbicidal effect by soil treatment (Table 19, symbol I); type: in vivo, wild oat (Avena fatua); details: AAH 320 g/ha
Method in brief: as §2

SMILES | I: wild oat, herbicidal effect rating
COc1nn(C)c(=O)c(-c2c(-c3ccc([N+](=O)[O-])cc3)sc3ccccc23)c1O [1-168] | 0 (Herbicidal rate of 5% or less (almost no effect))

test system: barnyard grass; assay: Test Example 3: herbicidal effect by foliage application, Wagner pot (Table 18, symbol H); type: in vivo, barnyard grass (Echinochloa crus-galli); details: 320 g/ha
Method in brief: (§3)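 Plants were sown in alluvial soil held under 0.1–0.5 cm standing water and grown 14 days in a greenhouse at 25–30 °C. An emulsifiable formulation, water-diluted to the set dose, was then sprayed onto the foliage, and effects were scored three weeks later using previously defined criteria.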

SMILES | herbicidal effect on H (barnyard grass), rating 0-5
COc1nn(C)c(=O)c(-c2c(-c3ccc([N+](=O)[O-])cc3)sc3ccccc23)c1O [1-168] | 0 (Herbicidal rate of 5% or less (almost no effect))

test system: persian speedwell; assay: Test Example 4: herbicidal effect by soil treatment (Table 19, symbol R); type: in vivo, Persian speedwell (Veronica persica); details: AAH 320 g/ha
Method in brief: as §2

SMILES | R: persian speedwell, herbicidal effect rating
COc1nn(C)c(=O)c(-c2c(-c3ccc([N+](=O)[O-])cc3)sc3ccccc23)c1O [1-168] | 3 (Herbicidal rate of 40% or more and less than 70%)

test system: Chinese sprangletop; assay: Test Example 3: herbicidal effect by foliage application, Wagner pot (Table 18, symbol D); type: in vivo, chinese sprangletop (Leptochloa chinensis); details: 320 g/ha
Method in brief: as §3

SMILES | herbicidal effect on D (Chinese sprangletop), rating 0-5
COc1nn(C)c(=O)c(-c2c(-c3ccc([N+](=O)[O-])cc3)sc3ccccc23)c1O [1-168] | 0 (Herbicidal rate of 5% or less (almost no effect))

test system: chickweed; assay: Test Example 5: herbicidal effect by foliage application, plastic box (Table 20, symbol P); type: in vivo, common chickweed (Stellaria media); details: foliage application, AAH 320 g/ha, three weeks after application
Method in brief: as §1

SMILES | P: chickweed, herbicidal effect
COc1nn(C)c(=O)c(-c2c(-c3ccc([N+](=O)[O-])cc3)sc3ccccc23)c1O [1-168] | 5 (Herbicidal rate of 90% or more (almost completely withered))

test system: green foxtail; assay: Test Example 5: herbicidal effect by foliage application, plastic box (Table 20, symbol G); type: in vivo, green foxtail (Setaria viridis); details: foliage application, AAH 320 g/ha, three weeks after application
Method in brief: as §1

SMILES | G: green foxtail, herbicidal effect
COc1nn(C)c(=O)c(-c2c(-c3ccc([N+](=O)[O-])cc3)sc3ccccc23)c1O [1-168] | 3 (Herbicidal rate of 40% or more and less than 70%)

test system: southern crabgrass; assay: Test Example 4: herbicidal effect by soil treatment (Table 19, symbol F); type: in vivo, southern crabgrass (Digitaria ciliaris); details: AAH 320 g/ha
Method in brief: as §2

SMILES | F: southern crabgrass, herbicidal effect rating
COc1nn(C)c(=O)c(-c2c(-c3ccc([N+](=O)[O-])cc3)sc3ccccc23)c1O [1-168] | 0 (Herbicidal rate of 5% or less (almost no effect))

test system: rice flat sedge; assay: Test Example 3: herbicidal effect by foliage application, Wagner pot (Table 18, symbol E); type: in vivo, rice flat sedge (Cyperus iria); details: 320 g/ha
Method in brief: as §3

SMILES | herbicidal effect on E (rice flat sedge), rating 0-5
COc1nn(C)c(=O)c(-c2c(-c3ccc([N+](=O)[O-])cc3)sc3ccccc23)c1O [1-168] | 3 (Herbicidal rate of 40% or more and less than 70%)

test system: windgrass; assay: Test Example 5: herbicidal effect by foliage application, plastic box (Table 20, symbol L); type: in vivo, windgrass (Apera spica-venti); details: foliage application, AAH 320 g/ha, three weeks after application
Method in brief: as §1

SMILES | L: windgrass, herbicidal effect
COc1nn(C)c(=O)c(-c2c(-c3ccc([N+](=O)[O-])cc3)sc3ccccc23)c1O [1-168] | 0 (Herbicidal rate of 5% or less (almost no effect))

test system: chickweed; assay: Test Example 4: herbicidal effect by soil treatment (Table 19, symbol P); type: in vivo, common chickweed (Stellaria media); details: AAH 320 g/ha
Method in brief: as §2

SMILES | P: chickweed, herbicidal effect rating
COc1nn(C)c(=O)c(-c2c(-c3ccc([N+](=O)[O-])cc3)sc3ccccc23)c1O [1-168] | 4 (Herbicidal rate of 70% or more and less than 90%)

test system: windgrass; assay: Test Example 4: herbicidal effect by soil treatment (Table 19, symbol L); type: in vivo, windgrass (Apera spica-venti); details: AAH 320 g/ha
Method in brief: as §2

SMILES | L: windgrass, herbicidal effect rating
COc1nn(C)c(=O)c(-c2c(-c3ccc([N+](=O)[O-])cc3)sc3ccccc23)c1O [1-168] | 0 (Herbicidal rate of 5% or less (almost no effect))

test system: barnyard grass; assay: Test Example 4: herbicidal effect by soil treatment (Table 19, symbol H); type: in vivo, barnyard grass (Echinochloa crus-galli); details: AAH 320 g/ha
Method in brief: as §2

SMILES | H: barnyard grass, herbicidal effect rating
COc1nn(C)c(=O)c(-c2c(-c3ccc([N+](=O)[O-])cc3)sc3ccccc23)c1O [1-168] | 0 (Herbicidal rate of 5% or less (almost no effect))

test system: redroot pigweed; assay: Test Example 5: herbicidal effect by foliage application, plastic box (Table 20, symbol N); type: in vivo, redroot pigweed (Amaranthus retroflexus); details: foliage application, AAH 320 g/ha, three weeks after application
Method in brief: as §1

SMILES | N: redroot pigweed, herbicidal effect
COc1nn(C)c(=O)c(-c2c(-c3ccc([N+](=O)[O-])cc3)sc3ccccc23)c1O [1-168] | 5 (Herbicidal rate of 90% or more (almost completely withered))

test system: Italian ryegrass; assay: Test Example 4: herbicidal effect by soil treatment (Table 19, symbol K); type: in vivo, Italian ryegrass (Lolium multiflorum); details: AAH 320 g/ha
Method in brief: as §2

SMILES | K: Italian ryegrass, herbicidal effect rating
COc1nn(C)c(=O)c(-c2c(-c3ccc([N+](=O)[O-])cc3)sc3ccccc23)c1O [1-168] | 0 (Herbicidal rate of 5% or less (almost no effect))

test system: velvetleaf; assay: Test Example 4: herbicidal effect by soil treatment (Table 19, symbol M); type: in vivo, velvetleaf (Abutilon theophrasti); details: AAH 320 g/ha
Method in brief: as §2

SMILES | M: velvetleaf, herbicidal effect rating
COc1nn(C)c(=O)c(-c2c(-c3ccc([N+](=O)[O-])cc3)sc3ccccc23)c1O [1-168] | 0 (Herbicidal rate of 5% or less (almost no effect))

test system: Italian ryegrass; assay: Test Example 5: herbicidal effect by foliage application, plastic box (Table 20, symbol K); type: in vivo, Italian ryegrass (Lolium multiflorum); details: foliage application, AAH 320 g/ha, three weeks after application
Method in brief: as §1

SMILES | K: Italian ryegrass, herbicidal effect
COc1nn(C)c(=O)c(-c2c(-c3ccc([N+](=O)[O-])cc3)sc3ccccc23)c1O [1-168] | 2 (Herbicidal rate of 20% or more and less than 40%)

test system: lambsquarters; assay: Test Example 4: herbicidal effect by soil treatment (Table 19, symbol O); type: in vivo, lambsquarters (Chenopodium album); details: AAH 320 g/ha
Method in brief: as §2

SMILES | O: lambsquarters, herbicidal effect rating
COc1nn(C)c(=O)c(-c2c(-c3ccc([N+](=O)[O-])cc3)sc3ccccc23)c1O [1-168] | 0 (Herbicidal rate of 5% or less (almost no effect))

test system: velvetleaf; assay: Test Example 5: herbicidal effect by foliage application, plastic box (Table 20, symbol M); type: in vivo, velvetleaf (Abutilon theophrasti); details: foliage application, AAH 320 g/ha, three weeks after application
Method in brief: as §1

SMILES | M: velvetleaf, herbicidal effect
COc1nn(C)c(=O)c(-c2c(-c3ccc([N+](=O)[O-])cc3)sc3ccccc23)c1O [1-168] | 4 (Herbicidal rate of 70% or more and less than 90%)

test system: barnyard grass; assay: Test Example 5: herbicidal effect by foliage application, plastic box (Table 20, symbol H); type: in vivo, barnyard grass (Echinochloa crus-galli); details: foliage application, AAH 320 g/ha, three weeks after application
Method in brief: as §1

SMILES | H: barnyard grass, herbicidal effect
COc1nn(C)c(=O)c(-c2c(-c3ccc([N+](=O)[O-])cc3)sc3ccccc23)c1O [1-168] | 2 (Herbicidal rate of 20% or more and less than 40%)
